# Test results reported in ChEMBL document CHEMBL1201862, “PubChem BioAssay data set” (2004).
# Active and inactive are the calls of the source.
# What was measured:
# [1] = tested on: Streptococcus sp. 'group A'; assay: Streptococcus pyogenes SK(-)GAS viability under kanamycin – luminescence, BacTiterGlo, confirmation, counter-screen for streptokinase expression inhibitor project, dose response (AID 1900); assay type: functional, organism-based
# Streptokinase A = molecular target: T1, Streptokinase A (Streptococcus pyogenes serotype M1, UniProt P10520); assay: viability-normalized secreted streptokinase activity reduction – plasminogen activation absorbance, OD405, dose response (AID 1914); assay type: functional, Streptococcus pyogenes M1 GAS;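 further: secreted streptokinase activity via plasminogen activation per viability signal from cell pellet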
# T1 sequence (P10520 whole entry): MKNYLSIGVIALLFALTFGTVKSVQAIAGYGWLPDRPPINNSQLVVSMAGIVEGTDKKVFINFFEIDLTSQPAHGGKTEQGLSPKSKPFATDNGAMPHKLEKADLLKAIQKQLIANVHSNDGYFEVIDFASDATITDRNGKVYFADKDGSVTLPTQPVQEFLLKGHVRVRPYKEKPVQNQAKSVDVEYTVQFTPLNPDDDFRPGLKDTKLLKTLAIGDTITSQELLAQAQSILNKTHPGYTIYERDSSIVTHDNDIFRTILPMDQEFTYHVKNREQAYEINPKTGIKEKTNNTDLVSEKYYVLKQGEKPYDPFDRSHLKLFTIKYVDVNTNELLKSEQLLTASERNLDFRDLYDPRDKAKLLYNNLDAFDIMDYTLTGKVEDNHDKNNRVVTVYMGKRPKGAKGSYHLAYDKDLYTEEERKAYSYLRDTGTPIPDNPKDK
# Streptococcus = assay: GAS UMAA2166 growth inhibition – luminescence, BacTiterGlo, counter-screen for streptokinase expression inhibitor project, dose response (AID 1915); assay type: functional, organism-based;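 further: potency for reduction of bacterial viability or growth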
# [2] = molecular target: T2, Rac GTPase-activating protein 1 (Homo sapiens, UniProt Q9H0H5); assay: blockers of MgcRacGAP-driven Rac1 GTP hydrolysis – biochemical, ADP Hunter fluorescence, primary and confirmatory, confirmation (AID 624330); assay type: functional
# T2 sequence (Q9H0H5 whole entry): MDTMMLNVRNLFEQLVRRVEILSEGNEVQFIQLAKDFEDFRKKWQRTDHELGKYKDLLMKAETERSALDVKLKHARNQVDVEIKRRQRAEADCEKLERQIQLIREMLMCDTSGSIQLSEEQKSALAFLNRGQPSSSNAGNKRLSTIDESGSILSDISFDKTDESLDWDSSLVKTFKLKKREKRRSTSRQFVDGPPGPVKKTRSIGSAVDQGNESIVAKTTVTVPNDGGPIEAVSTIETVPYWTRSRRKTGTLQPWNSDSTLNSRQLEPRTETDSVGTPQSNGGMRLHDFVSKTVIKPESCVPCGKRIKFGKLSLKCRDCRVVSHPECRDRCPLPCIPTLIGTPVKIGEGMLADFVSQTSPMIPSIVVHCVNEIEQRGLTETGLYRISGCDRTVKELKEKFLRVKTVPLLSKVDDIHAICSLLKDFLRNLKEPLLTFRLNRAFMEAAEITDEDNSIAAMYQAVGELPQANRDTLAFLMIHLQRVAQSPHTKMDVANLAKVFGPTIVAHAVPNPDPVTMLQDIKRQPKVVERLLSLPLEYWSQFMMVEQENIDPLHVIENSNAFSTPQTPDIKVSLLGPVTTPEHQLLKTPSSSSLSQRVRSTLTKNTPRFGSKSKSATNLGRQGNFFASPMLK
# Cytochrome P450 3A4 = Cytochrome P450 3A4 (Homo sapiens, UniProt P08684);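 further: CYP3A4 tested as one member of a cytochrome P450 panel screen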
# Cytochrome P450 2D6 = Cytochrome P450 2D6 (Homo sapiens, UniProt P10635);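 further: CYP2D6 member of a cytochrome P450 panel assay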
# Cytochrome P450 1A2 = molecular target: T3, Cytochrome P450 1A2 (Homo sapiens, UniProt P05177);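 further: PubChem cytochrome P450 panel assay, CYP1A2 panel member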
# T3 sequence (P05177 whole entry): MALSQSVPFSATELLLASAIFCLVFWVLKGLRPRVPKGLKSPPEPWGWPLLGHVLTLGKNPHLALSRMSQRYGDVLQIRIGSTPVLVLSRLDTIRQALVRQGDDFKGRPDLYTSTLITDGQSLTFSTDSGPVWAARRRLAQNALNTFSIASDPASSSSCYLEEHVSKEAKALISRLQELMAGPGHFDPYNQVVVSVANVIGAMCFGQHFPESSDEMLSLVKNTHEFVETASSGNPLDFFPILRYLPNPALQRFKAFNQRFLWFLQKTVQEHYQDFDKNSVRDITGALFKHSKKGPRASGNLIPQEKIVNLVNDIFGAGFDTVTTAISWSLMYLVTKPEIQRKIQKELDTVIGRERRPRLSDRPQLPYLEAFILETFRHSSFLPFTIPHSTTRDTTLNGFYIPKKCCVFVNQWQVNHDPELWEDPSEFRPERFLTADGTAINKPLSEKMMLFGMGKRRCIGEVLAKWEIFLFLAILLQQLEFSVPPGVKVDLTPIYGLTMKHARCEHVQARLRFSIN
# Cytochrome P450 2C19 = Cytochrome P450 2C19 (Homo sapiens, UniProt P33261); assay: Cytochrome panel assay with activity outcomes. Panel member name: p450-cyp2c19 Compounds with AC50 equal or less than 10 uM are considered active; assay type: functional
# Cytochrome P450 2C19, sequence (P33261 whole entry): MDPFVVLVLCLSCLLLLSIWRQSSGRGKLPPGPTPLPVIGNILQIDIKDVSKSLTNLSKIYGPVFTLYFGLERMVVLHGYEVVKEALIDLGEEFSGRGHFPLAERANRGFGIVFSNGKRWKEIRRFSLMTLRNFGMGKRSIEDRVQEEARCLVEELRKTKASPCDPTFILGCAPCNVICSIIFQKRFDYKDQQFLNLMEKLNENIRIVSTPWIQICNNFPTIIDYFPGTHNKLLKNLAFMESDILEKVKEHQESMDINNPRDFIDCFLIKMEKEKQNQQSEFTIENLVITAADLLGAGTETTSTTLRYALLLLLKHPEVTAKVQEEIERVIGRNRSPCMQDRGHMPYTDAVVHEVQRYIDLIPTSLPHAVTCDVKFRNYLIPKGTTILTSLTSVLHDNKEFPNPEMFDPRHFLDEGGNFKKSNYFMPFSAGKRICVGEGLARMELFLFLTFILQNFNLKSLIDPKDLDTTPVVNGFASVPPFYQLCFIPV
# Cytochrome P450 3A4, sequence (P08684 whole entry): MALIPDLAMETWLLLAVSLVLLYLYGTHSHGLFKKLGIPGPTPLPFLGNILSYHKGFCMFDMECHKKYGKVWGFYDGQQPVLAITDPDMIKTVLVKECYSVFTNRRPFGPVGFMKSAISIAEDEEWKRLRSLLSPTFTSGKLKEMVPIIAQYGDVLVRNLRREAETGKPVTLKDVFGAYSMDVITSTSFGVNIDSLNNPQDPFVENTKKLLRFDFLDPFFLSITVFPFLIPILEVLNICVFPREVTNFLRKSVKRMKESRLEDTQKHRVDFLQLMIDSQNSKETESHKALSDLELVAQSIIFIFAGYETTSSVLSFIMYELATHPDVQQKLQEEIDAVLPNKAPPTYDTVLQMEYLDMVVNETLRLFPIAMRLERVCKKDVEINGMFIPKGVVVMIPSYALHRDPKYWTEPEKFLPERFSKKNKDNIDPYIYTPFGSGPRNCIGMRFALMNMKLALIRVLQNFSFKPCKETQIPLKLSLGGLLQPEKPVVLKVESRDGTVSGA
# Cytochrome P450 2D6, sequence (P10635 whole entry): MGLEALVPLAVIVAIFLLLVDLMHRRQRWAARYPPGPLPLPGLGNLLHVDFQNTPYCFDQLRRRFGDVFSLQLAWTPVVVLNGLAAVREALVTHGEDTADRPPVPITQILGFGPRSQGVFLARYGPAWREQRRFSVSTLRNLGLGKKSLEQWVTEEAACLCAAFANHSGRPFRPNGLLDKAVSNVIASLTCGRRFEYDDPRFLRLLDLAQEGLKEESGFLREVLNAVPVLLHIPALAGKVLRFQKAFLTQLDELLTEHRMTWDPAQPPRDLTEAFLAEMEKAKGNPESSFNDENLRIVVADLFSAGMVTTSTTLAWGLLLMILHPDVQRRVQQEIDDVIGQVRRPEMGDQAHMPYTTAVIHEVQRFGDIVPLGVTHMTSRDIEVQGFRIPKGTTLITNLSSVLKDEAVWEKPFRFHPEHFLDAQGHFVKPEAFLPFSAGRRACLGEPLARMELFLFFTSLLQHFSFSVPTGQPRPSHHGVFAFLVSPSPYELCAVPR
compound,measurement,setting,value
CC(C)N1CCc2c(sc(NC(=O)CCS(=O)(=O)c3ccccc3)c2C#N)C1,EC50,[1],> 150 µM (not active)
same,EC50,Streptokinase A,> 150 µM (not active)
same,EC50,Streptococcus,> 150 µM (not active)
COC(=O)C1C(O)=C(/C=N/c2ccc(N)cc2)C(=O)CC1(C)C (stereo not given),IC50,[2],40 µM (active)
C=C(C)CNC(=S)NNC(=O)CCn1c2ccc(Cl)cc2c2cc(Cl)ccc21,EC50,Streptokinase A,> 150 µM (not active)
COC(=O)c1ccccc1NS(=O)(=O)c1ccc2c3c(cccc13)C(=O)N2,AC50,Cytochrome P450 3A4,12.6 µM (inconclusive)
same,AC50,Cytochrome P450 2D6,28.2 µM (inconclusive)
same,AC50,Cytochrome P450 1A2,15.8 µM (inconclusive)
CCSC(=N)Nc1ccc(C(F)(F)F)cc1,AC50,Cytochrome P450 3A4,39.8 µM (inconclusive)
same,AC50,Cytochrome P450 2C19; read-out: AC50,20 µM (inconclusive)
O=S(=O)(Nc1ccc(N=Nc2ccc(O)c3ccccc23)cc1)c1ccccc1,EC50,[1],7.71 µM (active)
same,EC50,Streptokinase A,18.7 µM (active)
same,EC50,Streptococcus,41.5 µM (active)
O=[N+]([O-])c1cc([N+](=O)[O-])c2nonc2c1Nc1ccccc1O,IC50,[2],76.9 µM (active)
CCO[C@H]1O[C@@H]([C@H](COCc2ccccc2)OCc2ccccc2)[C@@H](OCc2ccccc2)[C@H]1O,AC50,Cytochrome P450 2D6,15.8 µM (inconclusive)
same,AC50,Cytochrome P450 2C19; read-out: AC50,5.01 µM (inconclusive)
same,AC50,Cytochrome P450 1A2,12.6 µM (inconclusive)
COc1ccc(-c2ccc(C(=S)N3CCN(C(C)=O)CC3)o2)cc1,AC50,Cytochrome P450 2D6,28.2 µM (inconclusive)
CNC(=O)c1sc(SC)cc1-c1ccc(Cl)cc1,AC50,Cytochrome P450 2D6,25.1 µM (inconclusive)
O=C(/C=C/c1cccnc1)c1ccc(NC(=O)c2cccc(Br)c2)cc1,AC50,Cytochrome P450 2D6,2 µM (inconclusive)
same,AC50,Cytochrome P450 1A2,14.1 µM (inconclusive)
Cn1c(=O)c(C(=O)NNC(=O)c2ccccc2Br)c(O)c2ccccc21,EC50,[1],4.72 µM (active)
same,EC50,Streptokinase A,> 150 µM (not active)
same,EC50,Streptococcus,18.7 µM (active)
COc1ccc(C(CNC(=O)c2cccc(S(=O)(=O)Nc3ccccc3Cl)c2)N2CCOCC2)cc1 (stereo not given),EC50,Streptokinase A,> 150 µM (not active)
same,EC50,Streptococcus,104 µM (active)
O=C(NC(=S)Nc1ccc(N2CCOCC2)c(Cl)c1)c1cccs1,EC50,[1],11 µM (active)
same,EC50,Streptokinase A,> 150 µM (not active)
same,EC50,Streptococcus,15.8 µM (active)
CCOC(=O)CC(NC(=O)c1cccs1)c1ccc(OCC)cc1 (stereo not given),AC50,Cytochrome P450 2D6,14.1 µM (inconclusive)
Oc1ccc(Cc2cc(Cl)cc(Cl)c2O)cc1Cl,AC50,Cytochrome P450 3A4,3.98 µM (inconclusive)
same,AC50,Cytochrome P450 2D6,7.94 µM (inconclusive)
CCOc1ccc(Nc2nc(N3CCCCC3)nc(N3CCCCC3)n2)cc1,EC50,[1],0.648 µM (active)
same,EC50,Streptokinase A,> 150 µM (not active)
same,EC50,Streptococcus,54.1 µM (active)
Nc1ccc2c(c1Br)Cc1ccccc1-2,IC50,[2],43.8 µM (active)
COC(=O)[C@H](C)[C@@H]1C[C@@]1(C)[C@@H](NC(=O)OCc1ccccc1)c1ccccc1,AC50,Cytochrome P450 1A2,15.8 µM (inconclusive)
COCCn1c(=O)c(-c2ccc(OC)cc2)nc2cnc(Nc3cccc(OC)c3)nc21,AC50,Cytochrome P450 3A4,5.01 µM (inconclusive)
same,AC50,Cytochrome P450 1A2,10 µM (inconclusive)
CCC/C=C(\CCC)C(NS(=O)(=O)c1cccc2cccnc12)c1ccc(C(=O)OC)cc1 (stereo not given),AC50,Cytochrome P450 1A2,6.31 µM (inconclusive)
CC1Cc2ccccc2N1C(=O)CNCCCN(C)C (stereo not given),IC50,[2],76.9 µM (active)
COc1ccc(C(=O)NCC(c2ccc(F)cc2)N2CCOCC2)cc1S(=O)(=O)N1CCCC1 (stereo not given),AC50,Cytochrome P450 2D6,15.8 µM (inconclusive)
CCCCN1C(=O)NC(=O)/C(=C(\C)Nc2ccc(OCC)cc2)C1=O,EC50,[1],8.66 µM (active)
same,EC50,Streptokinase A,> 150 µM (not active)
same,EC50,Streptococcus,21.5 µM (active)
Cc1cc(Cc2cc(C)c(N)cc2N)c(N)cc1N,AC50,Cytochrome P450 1A2,2 µM (inconclusive)
COc1cc(/C=C/C(=O)OCC(=O)N2CCN(S(=O)(=O)c3ccc(C)cc3C)CC2)ccc1O,IC50,[2],88.2 µM (active)
CC(C)C[C@@H](N)C(=O)Nc1ccc2ccccc2c1,AC50,Cytochrome P450 3A4,2.51 µM (inconclusive)
same,AC50,Cytochrome P450 2D6,3.16 µM (inconclusive)
same,AC50,Cytochrome P450 2C19; read-out: AC50,2.51 µM (inconclusive)
C=CCNC(=O)c1ccccc1NC(=O)c1ccc(Cl)c(S(=O)(=O)Nc2cc(C)ccc2C)c1,EC50,[1],24.8 µM (active)
same,EC50,Streptokinase A,41.7 µM (active)
same,EC50,Streptococcus,> 150 µM (not active)
CCOC(=O)C1CCCN(c2ncnc3c2cnn3-c2cccc(C)c2)C1 (stereo not given),AC50,Cytochrome P450 3A4,28.2 µM (inconclusive)
same,AC50,Cytochrome P450 2C19; read-out: AC50,20 µM (inconclusive)
COC(=O)[C@@]1(Cc2ccc(F)cc2)[C@H]2c3cc(C(=O)N4CCCC4)n(Cc4ccc(S(C)(=O)=O)cc4)c3C[C@H]2CN1C(=O)c1ccccc1,AC50,Cytochrome P450 3A4,1.26 µM (inconclusive)
same,AC50,Cytochrome P450 1A2,15.8 µM (inconclusive)
CN(C)c1ccc(-c2cncnc2NCc2ccccc2)cc1,AC50,Cytochrome P450 2D6,39.8 µM (inconclusive)
COc1cc(NC(=O)c2ccccc2)c(OC)cc1NC(=O)CN1CCN(c2ccccn2)CC1,AC50,Cytochrome P450 3A4,12.6 µM (inconclusive)
same,AC50,Cytochrome P450 1A2,25.1 µM (inconclusive)
Cn1nc(C(F)(F)F)c(C(=O)Nc2ccc(F)cc2F)c1Sc1cccc(C(F)(F)F)c1,AC50,Cytochrome P450 2D6,20 µM (inconclusive)
same,AC50,Cytochrome P450 1A2,15.8 µM (inconclusive)
NCCCCNS(=O)(=O)c1ccc2c(Cl)cccc2c1,AC50,Cytochrome P450 3A4,25.1 µM (inconclusive)
same,AC50,Cytochrome P450 2D6,31.6 µM (inconclusive)
same,AC50,Cytochrome P450 1A2,39.8 µM (inconclusive)
Fc1ccc(Br)cc1C1C=C(c2ccc(Br)s2)Nc2ncnn21 (stereo not given),EC50,[1],4.65 µM (active)
same,EC50,Streptokinase A,> 150 µM (not active)
same,EC50,Streptococcus,24.3 µM (active)
O=C(CSc1ccc2ccccc2n1)N/N=C/c1ccc(O)cc1,IC50,[2],73.2 µM (active)
COc1ccc(CN(C)S(=O)(=O)c2ccc3c(c2)OCCO3)cc1,EC50,[1],> 150 µM (not active)
same,EC50,Streptokinase A,> 150 µM (not active)
same,EC50,Streptococcus,> 150 µM (not active)
COc1ccc(NC2CCCN(C(=O)CCN3CCCC3=O)C2)cc1OC (stereo not given),IC50,[2],293 µM (active)
c1ccc(CN2CCN(c3nc4ccccc4c4ccccc34)CC2)cc1,EC50,[1],15.9 µM (active)
same,EC50,Streptokinase A,14.9 µM (active)
same,EC50,Streptococcus,> 150 µM (not active)
CCOc1cc(CN2CCN(C(=O)CC(C)C)CC2)ccc1OC,IC50,[2],155 µM (active)
CC(=O)Nc1nnc(S)s1,IC50,[2],66.2 µM (active)
COc1ccc(/C=C2\Sc3ccc(C(=O)N4CCCC4)cc3N(C)C2=O)cc1OC,EC50,[1],0.555 µM (active)
same,EC50,Streptokinase A,> 150 µM (not active)
same,EC50,Streptococcus,8.27 µM (active)
O=[N+]([O-])c1cccc(-c2nc(-c3ccccc3)c(-c3cccs3)[nH]2)c1,AC50,Cytochrome P450 2D6,4.47 µM (inconclusive)
CC(C)(C)c1ccc(C(=O)NCc2ccc(Cl)cc2)cc1,AC50,Cytochrome P450 1A2,2 µM (inconclusive)
C[C@H]1CC[C@@]2(NC1)O[C@@H]1C[C@H]3[C@@H]4CC[C@@H]5C[C@@H](O)CC[C@@]5(C)[C@@H]4CC[C@]3(C)[C@@H]1[C@@H]2C,AC50,Cytochrome P450 2C19,inconclusive
COc1ccccc1CNc1ncncc1-c1ccc(C(=O)N(C)C)cc1,AC50,Cytochrome P450 2D6,39.8 µM (inconclusive)
